Data taken from ChEMBL document CHEMBL3124876, “A perylene derivative regulates HIF-1α and Stat3 signaling pathways” (Bioorg Med Chem, 2014).
Calls of active or inactive are those of the source. No cut-off for these calls is given here.

Assays:
MDA-MB-231 [1] = experiment: Antitumor activity against human MDA-MB-231 cells xenografted in Balb nu/nu mouse assessed as reduction in tumor growth at 5 mg/kg, po administered every other day for 10 days; format: functional, organism-based; design: dose 5 mg/kg
PANC-1 [2] = experiment: Antitumor activity against human PANC1 cells xenografted in Balb nu/nu mouse assessed as tumor regression at 2 mg/kg, ip administered every other day for 10 days measured after 19 days; format: functional, organism-based; design: dose 2 mg/kg
[3] = biological target: Tyrosine-protein kinase JAK2 (Homo sapiens) (UniProt O60674); experiment: Inhibition of JAK2 (unknown origin) assessed as total JAK2 level at 10 uM after 6 hrs by cell-based Western blotting analysis
MDA-MB-468 [4] = experiment: Inhibition of HIF-1 in human MDA-MB-468 cells assessed as reduction of GLUT1 mRNA expression at 5 to 10 uM by RT-PCR analysis in hypoxia condition; format: cell-based
[5] = biological target: Hypoxia-inducible factor 1-alpha (Homo sapiens) (UniProt Q16665); experiment: Inhibition of HIF-1 alpha in human MDA-MB-468 cells assessed as proteasomal degradation at 4 to 7 uM after 18 hrs by immunoblotting analysis in hypoxia condition in presence of MG132; format: cell-based
[6] = biological target: Hypoxia-inducible factor 1-alpha (Homo sapiens) (UniProt Q16665); experiment: Inhibition of HIF-1 alpha in human PANC1 cells after 18 hrs by Western blotting analysis in hypoxia condition in presence of T40214; format: cell-based; conditions: PANC-1
[7] = biological target: Hypoxia-inducible factor 1-alpha (Homo sapiens) (UniProt Q16665); experiment: Inhibition of HIF-1 alpha in human MDA-MB-468 cells assessed as proteasomal degradation at 4 to 7 uM after 18 hrs by immunoblotting analysis in hypoxia condition; format: cell-based
[8] = biological target: Aryl hydrocarbon receptor nuclear translocator (Homo sapiens) (UniProt P27540); experiment: Inhibition of HIF-1 beta in human PC3 cells after 18 hrs by Western blotting analysis in hypoxia condition; format: cell-based; conditions: PC-3
[9] = biological target: Proto-oncogene tyrosine-protein kinase Src (Homo sapiens) (UniProt P12931); experiment: Inhibition of […] phosphorylation in human MDA-MB-231 cells at 0.05 to 10 uM by Western blotting analysis; format: cell-based
[10] = biological target: Signal transducer and activator of transcription 3 (Homo sapiens) (UniProt P40763); conditions: MDA-MB-468, 1 to 20 uM
Description: Inhibition of Stat3 phosphorylation in human MDA-MB-468 cells assessed as inhibition of Bcl2 expression at 1 to 20 uM by Western blotting analysis in normoxia condition

[11] = biological target: Signal transducer and activator of transcription 3 (Homo sapiens) (UniProt P40763); conditions: 10 uM
Description: Inhibition of STAT3 (unknown origin) phosphorylation at 10 uM after 30 mins by cell-based Western blotting analysis

MDA-MB-468 [12] = experiment: Inhibition of HIF-1 in human MDA-MB-468 cells assessed as reduction of VEGF mRNA expression at 5 to 10 uM by RT-PCR analysis in hypoxia condition; format: cell-based
[13] = biological target: Tyrosine-protein kinase JAK2 (Homo sapiens) (UniProt O60674); experiment: Inhibition of JAK2 phosphorylation in human MDA-MB-231 cells at 0.05 to 10 uM by Western blotting analysis; format: cell-based
[14] = biological target: Proto-oncogene tyrosine-protein kinase Src (Homo sapiens) (UniProt P12931); experiment: Inhibition of Src kinase (unknown origin) phosphorylation at 10 uM after 6 hrs by cell-based Western blotting analysis
[15] = Antitumor activity against human PANC1 cells xenografted in Balb nu/nu mouse assessed as mean tumor weight at 2 mg/kg, ip administered every other day for 10 days measured after 19 days (reference value: 0.5 +/- 0.05 g); format: functional, PANC-1; conditions: route intraperitoneal
[16] = biological target: Endothelial PAS domain-containing protein 1 (Homo sapiens) (UniProt Q99814); experiment: Inhibition of HIF-2 alpha in human OVCAR3 cells at 1 to 20 uM by Western blotting analysis in hypoxia condition; format: cell-based; conditions: OVCAR-3
[17] = biological target: Signal transducer and activator of transcription 3 (Homo sapiens) (UniProt P40763); experiment: Inhibition of Stat3 phosphorylation in human MDA-MB-231 cells assessed as inhibition of c-Myc expression at 1 to 20 uM by Western blotting analysis; format: cell-based
[18] = Induction of apoptosis in human MCF10A cells assessed as reduction in cell viability at 1 to 10 uM by MTT assay; format: cell-based; conditions: mcf-10a
[19] = biological target: Histone acetyltransferase p300 (Homo sapiens) (UniProt Q09472); experiment: Inhibition of P300 in human MDA-MB-231 cells at 1 to 20 uM by Western blotting analysis; format: cell-based
[20] = biological target: Signal transducer and activator of transcription 3 (Homo sapiens) (UniProt P40763); conditions: MDA-MB-468, 1 to 20 uM; remark: listed apart in the source
Description: Inhibition of Stat3 phosphorylation in human MDA-MB-468 cells assessed as inhibition of Bcl2 expression at 1 to 20 uM by Western blotting analysis in hypoxia condition

[21] = Antitumor activity against human PANC1 cells xenografted in Balb nu/nu mouse assessed as mean tumor volume at 2 mg/kg, ip administered every other day for 10 days measured after 19 days (reference value: 754 mm'3); format: functional, PANC-1; conditions: route intraperitoneal
MDA-MB-231 [22] = experiment: Anticancer activity in human MDA-MB-231 cells assessed as reduction of total Stat3 level at 10 uM after 18 hrs by Western blotting analysis; format: functional, cell-based
Mus musculus = experiment: Toxicity in Balb nu/nu mouse assessed as change in body weight at 2 mg/kg, ip administered every other day for 10 days measured after 19 days; format: organism-based; design: dose 2 mg/kg, route intraperitoneal; conditions: in vivo, 456 h
[23] = biological target: Hypoxia-inducible factor 1-alpha (Homo sapiens) (UniProt Q16665); experiment: Inhibition of HIF-1 alpha in human PC3 cells after 18 hrs by Western blotting analysis in hypoxia condition; format: cell-based; conditions: PC-3
MDA-MB-468 [24] = experiment: Induction of apoptosis in human MDA-MB-468 cells assessed as reduction in cell viability at 1 to 10 uM by MTT assay; format: functional, cell-based
[25] = biological target: Signal transducer and activator of transcription 3 (Homo sapiens) (UniProt P40763); conditions: 10 uM; remark: listed apart in the source
Description: Inhibition of STAT3 (unknown origin) assessed as total STAT3 level at 10 uM after 6 hrs by cell-based Western blotting analysis

[26] = biological target: Hypoxia-inducible factor 1-alpha (Homo sapiens) (UniProt Q16665); experiment: Inhibition of HIF-1 alpha in human PANC1 cells assessed as inhibition of Bcl2 expression at 1 to 20 uM by Western blotting analysis in hypoxia condition; format: cell-based; conditions: PANC-1
PANC-1 [27] = experiment: Inhibition of ERK in human PANC1 cells at 1 to 20 uM by Western blotting analysis; format: cell-based
[28] = biological target: Histone acetyltransferase p300 (Homo sapiens) (UniProt Q09472); experiment: Inhibition of P300 in human PC3 cells after 18 hrs by Western blotting analysis in hypoxia condition; format: cell-based; conditions: PC-3
[29] = biological target: Signal transducer and activator of transcription 3 (Homo sapiens) (UniProt P40763); conditions: PANC-1, 0.5 to 20 uM
Description: Inhibition of Stat3 phosphorylation in human PANC1 cells assessed as inhibition of Bcl2 expression at 0.5 to 20 uM by Western blotting analysis in hypoxia condition

[30] = biological target: Histone acetyltransferase p300 (Homo sapiens) (UniProt Q09472); experiment: Inhibition of P300 in human MDA-MB-468 cells at 1 to 20 uM by Western blotting analysis; format: cell-based
[31] = biological target: Tyrosine-protein kinase JAK2 (Homo sapiens) (UniProt O60674); experiment: Inhibition of JAK2 (unknown origin) phosphorylation at 10 uM after 6 hrs by cell-based Western blotting analysis
[32] = biological target: Endothelial PAS domain-containing protein 1 (Homo sapiens) (UniProt Q99814); experiment: Inhibition of HIF-2 alpha in human MDA-MB-468 cells at 1 to 20 uM by Western blotting analysis in hypoxia condition; format: cell-based
MDA-MB-231 [33] = experiment: Induction of apoptosis in human MDA-MB-231 cells assessed as reduction in cell viability at 8 uM after 12 to 48 hrs by MTT assay; format: functional, cell-based
[34] = biological target: Hypoxia-inducible factor 1-alpha (Homo sapiens) (UniProt Q16665); experiment: Inhibition of HIF-1 alpha in human OVCAR3 cells assessed as inhibition of Bcl2 expression at 1 to 20 uM by Western blotting analysis in normoxia condition; format: cell-based; conditions: OVCAR-3
[35] = biological target: Aryl hydrocarbon receptor nuclear translocator (Homo sapiens) (UniProt P27540); experiment: Inhibition of HIF-1 beta in human MDA-MB-231 cells at 1 to 20 uM by Western blotting analysis; format: cell-based
MDA-MB-468 [36] = experiment: Induction of apoptosis in human MDA-MB-468 cells assessed as reduction in cell viability at 8 uM after 12 to 48 hrs by MTT assay; format: functional, cell-based

Signal transducer and activator of transcription 3 (Homo sapiens), sequence (P40763 whole entry): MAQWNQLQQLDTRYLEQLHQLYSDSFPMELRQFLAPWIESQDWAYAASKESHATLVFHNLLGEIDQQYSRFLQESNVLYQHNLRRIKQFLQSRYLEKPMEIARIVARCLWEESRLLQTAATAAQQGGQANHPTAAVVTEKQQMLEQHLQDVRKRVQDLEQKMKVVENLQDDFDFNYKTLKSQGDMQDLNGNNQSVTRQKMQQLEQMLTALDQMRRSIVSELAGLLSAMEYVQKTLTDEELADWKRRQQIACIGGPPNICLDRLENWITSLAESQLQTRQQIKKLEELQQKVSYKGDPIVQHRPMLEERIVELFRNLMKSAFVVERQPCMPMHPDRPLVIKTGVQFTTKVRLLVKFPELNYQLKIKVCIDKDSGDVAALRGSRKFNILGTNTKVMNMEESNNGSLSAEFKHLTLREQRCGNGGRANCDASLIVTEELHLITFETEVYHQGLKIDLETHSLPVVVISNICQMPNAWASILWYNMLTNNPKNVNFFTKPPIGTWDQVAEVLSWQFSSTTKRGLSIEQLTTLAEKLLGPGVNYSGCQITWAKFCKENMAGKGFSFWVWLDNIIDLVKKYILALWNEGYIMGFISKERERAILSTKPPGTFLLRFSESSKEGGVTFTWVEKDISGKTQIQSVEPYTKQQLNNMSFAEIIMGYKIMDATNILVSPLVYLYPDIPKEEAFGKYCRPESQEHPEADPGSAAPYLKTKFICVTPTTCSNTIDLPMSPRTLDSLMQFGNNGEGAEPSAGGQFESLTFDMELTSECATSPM
Hypoxia-inducible factor 1-alpha (Homo sapiens), sequence (Q16665 whole entry, looked up): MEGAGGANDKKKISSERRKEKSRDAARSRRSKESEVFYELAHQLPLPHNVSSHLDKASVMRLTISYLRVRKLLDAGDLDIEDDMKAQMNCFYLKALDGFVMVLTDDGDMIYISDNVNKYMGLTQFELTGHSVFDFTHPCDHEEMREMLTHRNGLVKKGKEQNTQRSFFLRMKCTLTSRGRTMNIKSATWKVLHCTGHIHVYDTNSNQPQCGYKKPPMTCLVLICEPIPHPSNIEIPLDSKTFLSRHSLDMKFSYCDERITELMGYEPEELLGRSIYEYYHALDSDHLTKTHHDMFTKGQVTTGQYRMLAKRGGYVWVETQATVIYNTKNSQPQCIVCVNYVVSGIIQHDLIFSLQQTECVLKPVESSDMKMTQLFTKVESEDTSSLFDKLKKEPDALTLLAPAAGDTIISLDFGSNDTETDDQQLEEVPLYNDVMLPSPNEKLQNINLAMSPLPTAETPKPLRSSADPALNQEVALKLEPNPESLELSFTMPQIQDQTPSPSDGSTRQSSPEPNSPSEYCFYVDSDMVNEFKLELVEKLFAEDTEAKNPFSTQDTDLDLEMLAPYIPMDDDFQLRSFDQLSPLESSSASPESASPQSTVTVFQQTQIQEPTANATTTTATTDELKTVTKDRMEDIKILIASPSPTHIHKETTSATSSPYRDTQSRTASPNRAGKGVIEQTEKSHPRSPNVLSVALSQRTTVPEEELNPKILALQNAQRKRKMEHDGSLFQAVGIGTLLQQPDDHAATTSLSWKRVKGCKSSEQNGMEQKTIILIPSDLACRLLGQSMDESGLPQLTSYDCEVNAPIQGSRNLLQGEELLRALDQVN
Histone acetyltransferase p300 (Homo sapiens), sequence (Q09472 whole entry): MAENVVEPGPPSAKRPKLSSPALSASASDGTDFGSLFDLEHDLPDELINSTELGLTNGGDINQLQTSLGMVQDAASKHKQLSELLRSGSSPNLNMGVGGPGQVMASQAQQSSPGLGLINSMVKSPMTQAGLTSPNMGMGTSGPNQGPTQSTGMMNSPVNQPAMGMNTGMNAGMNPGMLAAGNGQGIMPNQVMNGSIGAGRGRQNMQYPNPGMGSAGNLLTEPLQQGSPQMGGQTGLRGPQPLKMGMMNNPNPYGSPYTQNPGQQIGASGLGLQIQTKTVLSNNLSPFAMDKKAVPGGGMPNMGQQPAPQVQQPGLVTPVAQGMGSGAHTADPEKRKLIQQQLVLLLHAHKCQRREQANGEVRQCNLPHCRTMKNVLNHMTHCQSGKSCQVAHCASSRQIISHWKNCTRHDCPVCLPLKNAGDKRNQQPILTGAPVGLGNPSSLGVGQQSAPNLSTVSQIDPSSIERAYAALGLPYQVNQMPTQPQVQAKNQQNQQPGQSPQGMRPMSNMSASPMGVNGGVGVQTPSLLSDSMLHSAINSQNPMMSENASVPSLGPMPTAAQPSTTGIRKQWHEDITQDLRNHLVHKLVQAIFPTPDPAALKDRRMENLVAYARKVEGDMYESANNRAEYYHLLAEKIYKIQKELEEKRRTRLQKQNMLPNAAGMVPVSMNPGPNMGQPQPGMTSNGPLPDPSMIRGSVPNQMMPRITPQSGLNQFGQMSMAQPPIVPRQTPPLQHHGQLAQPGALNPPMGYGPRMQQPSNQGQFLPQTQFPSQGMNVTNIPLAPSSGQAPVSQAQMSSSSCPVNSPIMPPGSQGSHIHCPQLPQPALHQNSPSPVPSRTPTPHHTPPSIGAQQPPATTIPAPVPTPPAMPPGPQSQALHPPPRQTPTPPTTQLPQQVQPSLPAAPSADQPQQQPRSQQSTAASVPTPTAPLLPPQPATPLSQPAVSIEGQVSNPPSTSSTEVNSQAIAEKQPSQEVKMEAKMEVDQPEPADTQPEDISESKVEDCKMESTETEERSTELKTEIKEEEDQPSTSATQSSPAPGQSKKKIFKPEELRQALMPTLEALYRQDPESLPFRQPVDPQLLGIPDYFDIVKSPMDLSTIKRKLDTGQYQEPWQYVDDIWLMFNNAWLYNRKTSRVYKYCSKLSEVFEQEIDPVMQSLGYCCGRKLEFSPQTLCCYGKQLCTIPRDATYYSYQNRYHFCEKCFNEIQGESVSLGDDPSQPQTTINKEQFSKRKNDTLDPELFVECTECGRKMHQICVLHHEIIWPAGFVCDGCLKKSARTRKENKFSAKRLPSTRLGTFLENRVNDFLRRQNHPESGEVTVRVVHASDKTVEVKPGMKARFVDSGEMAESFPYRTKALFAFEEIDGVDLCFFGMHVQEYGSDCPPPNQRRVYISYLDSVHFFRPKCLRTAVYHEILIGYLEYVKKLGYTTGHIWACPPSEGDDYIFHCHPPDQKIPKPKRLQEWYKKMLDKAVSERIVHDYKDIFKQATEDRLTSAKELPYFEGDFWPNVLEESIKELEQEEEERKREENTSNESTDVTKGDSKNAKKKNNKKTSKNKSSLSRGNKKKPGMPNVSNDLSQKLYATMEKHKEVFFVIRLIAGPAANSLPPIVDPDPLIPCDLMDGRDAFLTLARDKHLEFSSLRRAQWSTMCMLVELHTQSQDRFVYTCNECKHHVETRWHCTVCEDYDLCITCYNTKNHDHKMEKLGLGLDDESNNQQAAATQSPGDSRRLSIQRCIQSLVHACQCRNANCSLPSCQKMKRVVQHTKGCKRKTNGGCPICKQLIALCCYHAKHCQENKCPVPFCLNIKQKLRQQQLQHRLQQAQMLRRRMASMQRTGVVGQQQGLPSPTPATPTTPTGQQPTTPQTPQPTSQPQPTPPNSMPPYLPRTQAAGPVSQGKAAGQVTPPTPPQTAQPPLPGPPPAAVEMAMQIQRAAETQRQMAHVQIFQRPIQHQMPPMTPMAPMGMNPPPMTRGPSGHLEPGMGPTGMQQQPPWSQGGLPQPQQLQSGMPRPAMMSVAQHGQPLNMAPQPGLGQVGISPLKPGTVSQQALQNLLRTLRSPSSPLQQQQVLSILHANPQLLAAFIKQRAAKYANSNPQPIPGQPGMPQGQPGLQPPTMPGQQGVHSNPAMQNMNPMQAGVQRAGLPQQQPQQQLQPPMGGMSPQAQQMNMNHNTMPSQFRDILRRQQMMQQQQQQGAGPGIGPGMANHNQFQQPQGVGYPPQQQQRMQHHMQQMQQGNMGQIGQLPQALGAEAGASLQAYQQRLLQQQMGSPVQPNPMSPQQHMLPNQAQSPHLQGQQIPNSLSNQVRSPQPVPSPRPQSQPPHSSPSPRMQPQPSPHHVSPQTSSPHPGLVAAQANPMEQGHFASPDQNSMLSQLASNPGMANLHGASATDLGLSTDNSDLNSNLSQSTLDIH
Tyrosine-protein kinase JAK2 (Homo sapiens), sequence (O60674 whole entry, the tested form may be a part): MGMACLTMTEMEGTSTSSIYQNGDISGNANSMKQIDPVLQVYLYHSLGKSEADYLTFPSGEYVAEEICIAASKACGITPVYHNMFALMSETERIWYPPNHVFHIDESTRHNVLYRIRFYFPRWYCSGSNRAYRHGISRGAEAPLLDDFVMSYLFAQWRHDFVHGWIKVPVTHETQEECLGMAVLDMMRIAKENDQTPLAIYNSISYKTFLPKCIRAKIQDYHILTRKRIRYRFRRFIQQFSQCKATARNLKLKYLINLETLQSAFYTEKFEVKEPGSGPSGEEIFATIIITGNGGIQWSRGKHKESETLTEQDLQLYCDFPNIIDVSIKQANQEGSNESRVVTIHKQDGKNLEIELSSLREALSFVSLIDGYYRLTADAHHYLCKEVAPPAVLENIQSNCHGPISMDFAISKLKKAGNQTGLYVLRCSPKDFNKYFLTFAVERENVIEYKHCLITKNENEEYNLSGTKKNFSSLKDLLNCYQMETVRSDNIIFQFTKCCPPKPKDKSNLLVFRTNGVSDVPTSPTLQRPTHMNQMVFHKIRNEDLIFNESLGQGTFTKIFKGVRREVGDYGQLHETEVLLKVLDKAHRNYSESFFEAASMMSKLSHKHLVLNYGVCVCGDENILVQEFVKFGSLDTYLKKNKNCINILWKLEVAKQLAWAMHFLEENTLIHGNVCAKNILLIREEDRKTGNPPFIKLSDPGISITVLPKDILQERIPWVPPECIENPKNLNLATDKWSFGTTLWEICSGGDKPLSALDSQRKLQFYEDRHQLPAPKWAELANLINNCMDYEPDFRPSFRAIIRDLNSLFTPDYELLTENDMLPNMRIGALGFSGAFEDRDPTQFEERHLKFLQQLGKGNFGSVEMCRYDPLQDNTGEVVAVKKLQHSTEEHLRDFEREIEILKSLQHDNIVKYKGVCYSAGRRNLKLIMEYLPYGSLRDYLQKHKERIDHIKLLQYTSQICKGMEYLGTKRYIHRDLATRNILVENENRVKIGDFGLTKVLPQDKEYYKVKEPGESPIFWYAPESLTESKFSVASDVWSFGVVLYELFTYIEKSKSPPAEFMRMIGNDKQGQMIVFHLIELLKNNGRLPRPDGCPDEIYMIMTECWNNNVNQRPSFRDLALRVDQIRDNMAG

For CN(C)CCCN1C(=O)c2ccc3c4ccc5c6c(ccc(c7ccc(c2c37)C1=O)c64)C(=O)N(CCCN(C)C)C5=O, the Activity (MDA-MB-231 [1]) was “Active”, the Activity (PANC-1 [2]) was “Active” and the inhibition [3] was “inactive”. The inhibition (MDA-MB-468 [4]) was “Active”, the inhibition [5] was “Active” and the inhibition [6] was “Active”. The inhibition [7] was “Active”, the inhibition [8] was “inactive” and the inhibition [9] was “inactive”. For the same compound, the inhibition [10] was “Active”, the inhibition [11] was “Active” and the inhibition (MDA-MB-468 [12]) was “Active”. The inhibition [13] was “inactive”, the inhibition [14] was “inactive” and the Activity [15] was 0.06 g. For the same compound, the inhibition [16] was “Active”, the inhibition [17] was “Active” and the Activity [18] was “Non-toxic”. For the same compound, the inhibition [19] was “inactive”, the inhibition [20] was “Active” and the Activity [21] was 75 mm3. For the same compound, the Activity (MDA-MB-231 [22]) was “inactive”, the Activity (Mus musculus) was “Non-toxic” and the inhibition [23] was “Active”. For the same compound, the Activity (MDA-MB-468 [24]) was “Active”, the inhibition [25] was “inactive” and the inhibition [26] was “Active”. The inhibition (PANC-1 [27]) was “inactive”, the inhibition [28] was “inactive” and the inhibition [29] was “Active”. For the same compound, the inhibition [30] was “inactive”, the inhibition [31] was “inactive” and the inhibition [32] was “Active”. The Activity (MDA-MB-231 [33]) was “Active”, the inhibition [34] was “Active” and the inhibition [35] was “inactive”. The Activity (MDA-MB-468 [36]) was “Active”.
